pIC50: −log10 of the molar value.
Tested on: HCT116 cells
Test: HCT116 cytotoxic activity assay (Alamar Blue, 72 h)
Format: cell-based
Conditions: Homo sapiens, HCT-116, 72 h compound exposure
Procedure: Representative compounds of this invention were tested for cytotoxicity using the above-described assay procedure with the following results: […]

[1] = greater than 500 nM but less than or equal to 2 μM

SMILES	pIC50 (greater than 2 μM)	pIC50 (less than or equal to 500 nM)	other results
NC(=O)c1cc(Oc2ccc(Nc3cc(-c4cccc(CO)c4)nc(N)n3)cc2)ccn1 [Example 265, 4-[4-({2-amino-6-[3-(hydroxymethyl)phenyl]pyrimidin-4-yl}amino)phenoxy]pyridine-2-carboxamide]	< 5.70		
CC(C)c1ccc(-c2cc(Nc3ccc(Oc4ccnc(C(N)=O)c4)cc3)nc(N)n2)cc1 [Example 266, 4-(4-{[2-amino-6-(4-isopropylphenyl)pyrimidin-4-yl]amino}phenoxy) pyridine-2-carboxamide]		≥ 6.30	
Cc1ccc(-c2cc(Nc3ccc(Oc4ccnc(C(N)=O)c4)cc3)nc(N)n2)cc1 [Example 267, 4-(4-{[2-amino-6-(4-methylphenyl)pyrimidin-4-yl]amino}phenoxy) pyridine-2-carboxamide]		≥ 6.30	
Cc1cccc(-c2cc(Nc3ccc(Oc4ccnc(C(N)=O)c4)cc3)nc(N)n2)c1 [Example 268, 4-(4-{[2-amino-6-(3-methylphenyl)pyrimidin-4-yl]amino}phenoxy) pyridine-2-carboxamide]		≥ 6.30	
NC(=O)c1cc(Oc2ccc(Nc3cc(-c4ccsc4)nc(N)n3)cc2)ccn1 [Example 269, 4-(4-{[2-amino-6-(3-thienyl)pyrimidin-4-yl]amino}phenoxy) pyridine-2-carboxamide]		≥ 6.30	
CC(C)c1cccc(-c2cc(Nc3ccc(Oc4ccnc(C(N)=O)c4)cc3)nc(N)n2)c1 [Example 270, 4-(4-{[2-amino-6-(3-isopropylphenyl)pyrimidin-4-yl]amino}phenoxy) pyridine-2-carboxamide]	< 5.70		
Cc1ccc(-c2cc(Nc3ccc(Oc4ccnc(C(N)=O)c4)cc3)nc(N)n2)cc1N [Example 271, 4-(4-{[2-amino-6-(3-amino-4-methylphenyl)pyrimidin-4-yl]amino}phenoxy)pyridine-2-carboxamide]		≥ 6.30	
NC(=O)c1cc(Oc2ccc(Nc3cc(-c4ccc(Cl)c(Cl)c4)nc(N)n3)cc2)ccn1 [Example 272, 4-(4-{[2-amino-6-(3,4-dichlorophenyl)pyrimidin-4-yl]amino}phenoxy)pyridine-2-carboxamide]	< 5.70		
CCOc1cccc(-c2cc(Nc3ccc(Oc4ccnc(C(N)=O)c4)cc3)nc(N)n2)c1 [Example 273, 4-(4-{[2-amino-6-(3-ethoxyphenyl)pyrimidin-4-yl]amino}phenoxy) pyridine-2-carboxamide]		≥ 6.30	
N#Cc1cc(Oc2ccc(Nc3cc(-c4cccc(OC(F)(F)F)c4)nc(N)n3)cc2)ccn1 [Example 274, 4-[4-({2-amino-6-[3-(trifluoromethoxy)phenyl]pyrimidin-4-yl}amino)phenoxy]pyridine-2-carbonitrile]	< 5.70		
N#Cc1cc(Oc2ccc(Nc3cc(-c4ccccc4OC(F)(F)F)nc(N)n3)cc2)ccn1 [Example 275, 4-[4-({2-amino-6-[2-(trifluoromethoxy)phenyl]pyrimidin-4-yl}amino)phenoxy]pyridine-2-carbonitrile]		≥ 6.30	
N#Cc1cc(Oc2ccc(Nc3cc(-c4cc(F)cc(F)c4)nc(N)n3)cc2)ccn1 [Example 276, 4-(4-{[2-amino-6-(3,5-difluorophenyl)pyrimidin-4-yl]amino}phenoxy)pyridine-2-carbonitrile]			pIC50 [1]: 5.70 to 6.30
NC(=O)c1cc(Oc2ccc(Nc3cc(-c4cccc(OC(F)(F)F)c4)nc(N)n3)cc2)ccn1 [Example 277, 4-[4-({2-amino-6-[3-(trifluoromethoxy)phenyl]pyrimidin-4-yl}amino)phenoxy]pyridine-2-carboxamide]	< 5.70		
NC(=O)c1cc(Oc2ccc(Nc3cc(-c4ccccc4OC(F)(F)F)nc(N)n3)cc2)ccn1 [Example 278, 4-[4-({2-amino-6-[2-(trifluoromethoxy)phenyl]pyrimidin-4-yl}amino)phenoxy]pyridine-2-carboxamide]		≥ 6.30	
NC(=O)c1cc(Oc2ccc(Nc3cc(-c4cc(F)cc(F)c4)nc(N)n3)cc2)ccn1 [Example 279, 4-(4-{[2-amino-6-(3,5-difluorophenyl)pyrimidin-4-yl]amino}phenoxy)pyridine-2-carboxamide]			pIC50 [1]: 5.70 to 6.30
NC(=O)c1cc(Oc2cccc(Nc3cc(-c4ccc(-c5ccccc5)cc4)nc(N)n3)c2)ccn1 [Example 280, 4-{3-[(2-amino-6-biphenyl-4-ylpyrimidin-4-yl)amino]phenoxy} pyridine-2-carboxamide]	< 5.70		
NC(=O)c1cc(Oc2cccc(Nc3cc(-c4cccc(OCc5ccccc5)c4)nc(N)n3)c2)ccn1 [Example 281, 4-[3-({2-amino-6-[3-(benzyloxy)phenyl]pyrimidin-4-yl}amino)phenoxy]pyridine-2-carboxamide]			pIC50 [1]: 5.70 to 6.30
Cc1cc(Oc2ccc(Nc3cc(-c4ccc(F)cc4)nc(N)n3)cc2)ccn1 [Example 282, 6-(4-fluorophenyl)-N4*-{4-[(2-methylpyridin-4-yl)oxy]phenyl} pyrimidine-2,4-diamine]		≥ 6.30	
NC(=O)c1cc(Oc2cccc(Nc3cc(-c4cccc(N)c4)nc(N)n3)c2)ccn1 [Example 283, 4-(3-{[2-amino-6-(3-aminophenyl)pyrimidin-4-yl]amino}phenoxy) pyridine-2-carboxamide]			pIC50 [1]: 5.70 to 6.30

SMILES	pIC50 (greater than 2 μM)	pIC50 (less than or equal to 500 nM)	other results
COc1ccc(-c2cc(Nc3cccc(Oc4ccnc(C(N)=O)c4)c3)nc(N)n2)cn1 [Example 284, 4-(3-{[2-amino-6-(6-methoxypyridin-3-yl)pyrimidin-4-yl]amino}phenoxy) pyridine-2-carboxamide]			pIC50 [1]: 5.70 to 6.30
NC(=O)c1cc(Oc2cccc(Nc3cc(-c4cccc(F)c4)nc(N)n3)c2)ccn1 [Example 285, 4-(3-{[2-amino-6-(3-fluorophenyl)pyrimidin-4-yl]amino}phenoxy) pyridine-2-carboxamide]	< 5.70		
NC(=O)c1cc(Oc2cccc(Nc3cc(-c4ccccc4F)nc(N)n3)c2)ccn1 [Example 286, 4-(3-{[2-amino-6-(2-fluorophenyl)pyrimidin-4-yl]amino}phenoxy) pyridine-2-carboxamide]			pIC50 [1]: 5.70 to 6.30
CN(C)c1ccc(-c2cc(Nc3cccc(Oc4ccnc(C(N)=O)c4)c3)nc(N)n2)cc1 [Example 287, 4-[3-({2-amino-6-[4-(dimethylamino)phenyl]pyrimidin-4-yl}amino)phenoxy]pyridine-2-carboxamide]	< 5.70		
CCc1cccc(-c2cc(Nc3cccc(Oc4ccnc(C(N)=O)c4)c3)nc(N)n2)c1 [Example 288, 4-(3-{[2-amino-6-(3-ethylphenyl)pyrimidin-4-yl]amino}phenoxy) pyridine-2-carboxamide]		≥ 6.30	
COc1ccc(C(C)C)cc1-c1cc(Nc2cccc(Oc3ccnc(C(N)=O)c3)c2)nc(N)n1 [Example 289, 4-(3-{[2-amino-6-(5-isopropyl-2-methoxyphenyl)pyrimidin-4-yl]amino}phenoxy)pyridine-2-carboxamide]	< 5.70		
Cc1ccccc1-c1cc(Nc2cccc(Oc3ccnc(C(N)=O)c3)c2)nc(N)n1 [Example 290, 4-(3-{[2-amino-6-(2-methylphenyl)pyrimidin-4-yl]amino}phenoxy) pyridine-2-carboxamide]		≥ 6.30	
COc1ccccc1-c1cc(Nc2cccc(Oc3ccnc(C(N)=O)c3)c2)nc(N)n1 [Example 291, 4-(3-{[2-amino-6-(2-methoxyphenyl)pyrimidin-4-yl]amino}phenoxy) pyridine-2-carboxamide]			pIC50 [1]: 5.70 to 6.30
COc1cccc(-c2cc(Nc3cccc(Oc4ccnc(C(N)=O)c4)c3)nc(N)n2)c1 [Example 292, 4-(3-{[2-amino-6-(3-methoxyphenyl)pyrimidin-4-yl]amino}phenoxy) pyridine-2-carboxamide]		≥ 6.30	
CC(C)c1ccc(-c2cc(Nc3cccc(Oc4ccnc(C(N)=O)c4)c3)nc(N)n2)cc1 [Example 293, 4-(3-{[2-amino-6-(4-isopropylphenyl)pyrimidin-4-yl]amino}phenoxy) pyridine-2-carboxamide]	< 5.70		
N#CCc1ccc(-c2cc(Nc3cccc(Oc4ccnc(C(N)=O)c4)c3)nc(N)n2)cc1 [Example 294, 4-[3-({2-amino-6-[4-(cyanomethyl)phenyl]pyrimidin-4-yl}amino)phenoxy]pyridine-2-carboxamide]			pIC50 [1]: 5.70 to 6.30
Cc1ccc(-c2cc(Nc3cccc(Oc4ccnc(C(N)=O)c4)c3)nc(N)n2)cc1 [Example 295, 4-(3-{[2-amino-6-(4-methylphenyl)pyrimidin-4-yl]amino}phenoxy) pyridine-2-carboxamide]	< 5.70		
Cc1cccc(-c2cc(Nc3cccc(Oc4ccnc(C(N)=O)c4)c3)nc(N)n2)c1 [Example 296, 4-(3-{[2-amino-6-(3-methylphenyl)pyrimidin-4-yl]amino}phenoxy) pyridine-2-carboxamide]		≥ 6.30	
NC(=O)c1cc(Oc2cccc(Nc3cc(-c4cccnc4)nc(N)n3)c2)ccn1 [Example 297, 4-{3-[(2-amino-6-pyridin-3-ylpyrimidin-4-yl)amino]phenoxy} pyridine-2-carboxamide]			pIC50 [1]: 5.70 to 6.30
NC(=O)c1cc(Oc2cccc(Nc3cc(-c4ccsc4)nc(N)n3)c2)ccn1 [Example 298, 4-(3-{[2-amino-6-(3-thienyl)pyrimidin-4-yl]amino}phenoxy) pyridine-2-carboxamide]		≥ 6.30	
CC(C)c1cccc(-c2cc(Nc3cccc(Oc4ccnc(C(N)=O)c4)c3)nc(N)n2)c1 [Example 299, 4-(3-{[2-amino-6-(3-isopropylphenyl)pyrimidin-4-yl]amino}phenoxy) pyridine-2-carboxamide]	< 5.70		
COc1ccc(OC)c(-c2cc(Nc3cccc(Oc4ccnc(C(N)=O)c4)c3)nc(N)n2)c1 [Example 300, 4-(3-{[2-amino-6-(2,5-dimethoxyphenyl)pyrimidin-4-yl]amino}phenoxy)pyridine-2-carboxamide]			pIC50 [1]: 5.70 to 6.30
NC(=O)c1cc(Oc2cccc(Nc3cc(-c4ccc[nH]4)nc(N)n3)c2)ccn1 [Example 301, 4-(3-{[2-amino-6-(1H-pyrrol-2-yl)pyrimidin-4-yl]amino}phenoxy) pyridine-2-carboxamide]	< 5.70		
Cc1ccc(-c2cc(Nc3cccc(Oc4ccnc(C(N)=O)c4)c3)nc(N)n2)cc1N [Example 302, 4-(3-{[2-amino-6-(3-amino-4-methylphenyl)pyrimidin-4-yl]amino}phenoxy)pyridine-2-carboxamide]		≥ 6.30	
